{"source": "patent US20240279220A1", "about": "“INDOLE COMPOUNDS AND METHODS OF USE” (Genzyme Corporation, priority 2021, published 2024)", "data": [{"test_system": "NBD1/3D", "experiment": "Aggregation analysis using differential static light scattering (DSLS), NBD1 thermal stability", "type": "binding, Human", "details": "ΔTagg versus DMSO control; compound at 100 μM", "in_short": "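Purified NBD1 at 0.2 mg/ml in S200 buffer (pH 7.6, 2 mM ATP, 5 mM MgCl2, 1% glycerol) was heated with compound at 1 °C/min to 70 °C. Tagg taken from the light-scattering curve inflection point; ΔTagg = compound Tagg minus mean DMSO control Tagg.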", "values": [{"compound": "COP(=O)(O)Cc1cccc(Cn2ccc(-c3cccc(Oc4ccc5[nH]ccc5c4CO)c3)n2)c1", "note": "[Example 13, methyl hydrogen (3-((3-(3-((4-(hydroxymethyl)-1H-indol-5-yl)oxy)phenyl)-1H-pyrazol-1-yl)methyl)benzyl)phosphonate]", "DSLS NBD1/3D Human Stability delta-T (° C.) @ 100 (μM)": "B (B: 5-10° C.)"}, {"compound": "NCc1c(CCC(=O)O)cccc1Cc1cnc(-c2cc(Oc3c(F)cc4[nH]ccc4c3F)ccc2F)[nH]1", "note": "[Example 141, 3-(2-(Aminomethyl)-3-((2-(5-((4,6-difluoro-1H-indol-5-yl)oxy)-2-fluorophenyl)-1H-imidazol-5-yl)methyl)phenyl)propanoic acid]", "DSLS NBD1/3D Human Stability delta-T (° C.) @ 100 (μM)": "C (C: ≤5° C.)"}, {"compound": "Cc1c(Oc2ccc(F)c(-c3nnc(Cc4cccc(CCC(=O)O)c4)[nH]3)c2)c(F)cc2[nH]ccc12", "note": "[Example 238, 3-(3-((5-(2-Fluoro-5-((6-fluoro-4-methyl-1H-indol-5-yl)oxy)phenyl)-4H-1,2,4-triazol-3-yl)methyl)phenyl)propanoic acid]", "DSLS NBD1/3D Human Stability delta-T (° C.) @ 100 (μM)": "B (B: 5-10° C.)"}, {"compound": "CC(Cc1cccc(C(C)c2cnc(-c3cc(Oc4c(F)cc5[nH]ccc5c4F)ccc3F)[nH]2)c1F)C(=O)O", "note": "(single isomer, unassigned) [Example 137B, 3-(3-(1-(2-(5-((4,6-difluoro-1H-indol-5-yl)oxy)-2-fluorophenyl)-1H-imidazol-5-yl)ethyl)-2-fluorophenyl)-2-methylpropanoic acid]", "DSLS NBD1/3D Human Stability delta-T (° C.) @ 100 (μM)": "B (B: 5-10° C.)"}, {"compound": "CS(=O)(=O)c1c(Oc2ccc(F)c(-c3ncc(C4(c5cccc(CCC(=O)O)c5)CCC4)[nH]3)c2)c(F)cc2[nH]ccc12", "note": "[Example 46, 3-(3-(1-(2-(2-fluoro-5-((6-fluoro-4-(methylsulfonyl)-1H-indol-5-yl)oxy)phenyl)-1H-imidazol-5-yl)cyclobutyl)phenyl)propanoic acid]", "DSLS NBD1/3D Human Stability delta-T (° C.) @ 100 (μM)": "A (A: T ≥ 10° C.)"}, {"compound": "c1cc(CCCCc2nnn[nH]2)cc(Cc2nnc(-c3cccc(Oc4ccc5[nH]ccc5c4)c3)[nH]2)c1", "note": "[Example 260, 5-(3-(5-(3-(4-(1H-Tetrazol-5-yl)butyl)benzyl)-4H-1,2,4-triazol-3-yl)phenoxy)-1H-indole]", "DSLS NBD1/3D Human Stability delta-T (° C.) @ 100 (μM)": "C (C: ≤5° C.)"}, {"compound": "CC1CC(c2cccc(CCC(=O)O)c2)(c2cnc(-c3cc(Oc4c(F)cc5[nH]ccc5c4F)ccc3F)[nH]2)CC(C)O1", "note": "(centres unmarked) [Example 142, 3-(3-(4-(2-(5-((4,6-Difluoro-1H-indol-5-yl)oxy)-2-fluorophenyl)-1H-imidazol-5-yl)-2,6-dimethyltetrahydro-2H-pyran-4-yl)phenyl)propanoic acid]", "DSLS NBD1/3D Human Stability delta-T (° C.) @ 100 (μM)": "A (A: T ≥ 10° C.)"}, {"compound": "CC(O)(c1cccc(/C=C2\\SC(=O)NC2=O)c1)c1cnc(-c2cccc(Oc3c(F)cc4[nH]ccc4c3F)c2)[nH]1", "note": "(centres unmarked) [Example 210, (Z)-5-(3-(1-(2-(3-((4,6-Difluoro-1H-indol-5-yl)oxy)phenyl)-1H-imidazol-5-yl)-1-hydroxyethyl)benzylidene)thiazolidine-2,4-dione]", "DSLS NBD1/3D Human Stability delta-T (° C.) @ 100 (μM)": "B (B: 5-10° C.)"}, {"compound": "CC(c1cccc(CCC(=O)O)c1F)n1ccc(-c2cc(Oc3c(F)cc4[nH]ccc4c3S(C)(=O)=O)ccc2F)n1", "note": "(single isomer, unassigned) [Example 41A, 3-(2-fluoro-3-(1-(3-(2-fluoro-5-((6-fluoro-4-(methylsulfonyl)-1H-indol-5-yl)oxy)phenyl)-1H-pyrazol-1-yl)ethyl)phenyl)propanoic acid]", "DSLS NBD1/3D Human Stability delta-T (° C.) @ 100 (μM)": "C (C: ≤5° C.)"}, {"compound": "CC(C#N)(c1cccc(CCC(=O)O)c1)c1c[nH]c(-c2cc(Oc3c(F)cc4[nH]ccc4c3F)ccc2F)n1", "note": "(centres unmarked) [Example 58, 3-(3-(1-cyano-1-(2-(5-((4,6-difluoro-1H-indol-5-yl)oxy)-2-fluorophenyl)-1H-imidazol-4-yl)ethyl)phenyl)propanoic acid]", "DSLS NBD1/3D Human Stability delta-T (° C.) @ 100 (μM)": "B (B: 5-10° C.)"}, {"compound": "COC(=O)CCc1cccc(Cc2c[nH]c(-c3cc(Oc4c(F)cc5[nH]ccc5c4F)ccc3F)n2)c1", "note": "[Example 101, methyl 3-(3-((2-(5-((4,6-difluoro-1H-indol-5-yl)oxy)-2-fluorophenyl)-1H-imidazol-4-yl)methyl)phenyl)propanoate]", "DSLS NBD1/3D Human Stability delta-T (° C.) @ 100 (μM)": "C (C: ≤5° C.)"}, {"compound": "Cc1c(Oc2ccc(F)c(-c3ncc(C(C)(O)c4cccc(CCC(=O)O)c4)[nH]3)c2)cc(F)c2[nH]ccc12", "note": "(centres unmarked) [Example 195, 3-(3-(1-(2-(2-fluoro-5-((7-fluoro-4-methyl-1H-indol-5-yl)oxy)phenyl)-1H-imidazol-5-yl)-1-hydroxyethyl)phenyl) propanoic acid]", "DSLS NBD1/3D Human Stability delta-T (° C.) @ 100 (μM)": "B (B: 5-10° C.)"}, {"compound": "Cc1c(Oc2ccc(F)c(-c3ccn(Cc4cccc(CCC(N)=O)c4)n3)c2)c(F)cc2[nH]ccc12", "note": "[Example 17, 3-(3-((3-(2-Fluoro-5-((6-fluoro-4-methyl-1H-indol-5-yl)oxy)phenyl)-1H-pyrazol-1-yl)methyl)phenyl)propanamide]", "DSLS NBD1/3D Human Stability delta-T (° C.) @ 100 (μM)": "C (C: ≤5° C.)"}, {"compound": "O=C(O)CCCCCc1cccc(Cc2nnc(-c3cccc(Oc4ccc5[nH]ccc5c4)c3)[nH]2)c1", "note": "[Example 255, 6-(3-((5-(3-((1H-indol-5-yl)oxy)phenyl)-4H-1,2,4-triazol-3-yl)methyl)phenyl)hexanoic acid]", "DSLS NBD1/3D Human Stability delta-T (° C.) @ 100 (μM)": "C (C: ≤5° C.)"}, {"compound": "CC(C)(c1c[nH]c(-c2cc(Oc3c(F)cc4[nH]ccc4c3Cl)ccc2F)n1)c1cccc(CCC(=O)O)c1F", "note": "[Example 164, 3-(3-(2-(2-(5-((4-chloro-6-fluoro-1H-indol-5-yl)oxy)-2-fluorophenyl)-1H-imidazol-4-yl)propan-2-yl)-2-fluorophenyl)propanoic acid]", "DSLS NBD1/3D Human Stability delta-T (° C.) @ 100 (μM)": "B (B: 5-10° C.)"}, {"compound": "Cc1c(Oc2ccc(F)c(-c3ncc(C(C)c4cccc([C@H]5CC5C(=O)O)c4F)[nH]3)c2)c(F)cc2[nH]ccc12", "note": "(single isomer, unassigned) [Example 139H, trans-2-(2-fluoro-3-(1-(2-(2-fluoro-5-((6-fluoro-4-methyl-1H-indol-5-yl)oxy)phenyl)-1H-imidazol-5-yl)ethyl)phenyl)cyclopropane-1-carboxylic acid]", "DSLS NBD1/3D Human Stability delta-T (° C.) @ 100 (μM)": "C (C: ≤5° C.)"}, {"compound": "CC(O)(c1cccc(CCC(=O)O)c1)c1c[nH]c(-c2cc(C(O)c3ccc4[nH]ccc4c3)ccc2F)n1", "note": "(centres unmarked) [Example 218, 3-(3-(1-(2-(2-Fluoro-5-(hydroxy(1H-indol-5-yl)methyl)phenyl)-1H-imidazol-4-yl)-1-hydroxyethyl)phenyl)propanoic acid]", "DSLS NBD1/3D Human Stability delta-T (° C.) @ 100 (μM)": "B (B: 5-10° C.)"}, {"compound": "CC(c1c[nH]c(-c2cc(Oc3c(F)cc4[nH]ccc4c3S(C)(=O)=O)ccc2F)n1)c1cccc(CC(=O)O)c1F", "note": "(single isomer, unassigned) [Example 85, 2-(2-fluoro-3-(1-(2-(2-fluoro-5-((6-fluoro-4-(methylsulfonyl)-1H-indol-5-yl)oxy)phenyl)-1H-imidazol-4-yl)ethyl)phenyl)acetic acid]", "DSLS NBD1/3D Human Stability delta-T (° C.) @ 100 (μM)": "B (B: 5-10° C.)"}, {"compound": "CC(O)(c1cccc(CCC(=O)O)c1)c1csc(-c2cc(Oc3c(F)cc4[nH]ccc4c3S(C)(=O)=O)ccc2F)n1", "note": "(centres unmarked) [Example 88, 3-(3-(1-(2-(2-Fluoro-5-((6-fluoro-4-(methylsulfonyl)-1H-indol-5-yl)oxy)phenyl)thiazol-4-yl)-1-hydroxyethyl)phenyl)propanoic acid]", "DSLS NBD1/3D Human Stability delta-T (° C.) @ 100 (μM)": "B (B: 5-10° C.)"}, {"compound": "O=C(O)CCc1cccc(Cc2cnc(-c3cccc(Oc4c(F)cc5[nH]ccc5c4-c4ccn[nH]4)c3)[nH]2)c1", "note": "[Example 271, 3-(3-((2-(3-((6-Fluoro-4-(1H-pyrazol-5-yl)-1H-indol-5-yl)oxy)phenyl)-1H-imidazol-4-yl)methyl)phenyl)propanoic acid]", "DSLS NBD1/3D Human Stability delta-T (° C.) @ 100 (μM)": "B (B: 5-10° C.)"}, {"compound": "Cc1c(Oc2ccc(F)c(-c3ncc(C(OCCO)c4cccc(CCC(=O)O)c4)[nH]3)c2)c(F)cc2[nH]ccc12", "note": "(centres unmarked) [Example 235, 3-(3-((2-(2-fluoro-5-((6-fluoro-4-methyl-1H-indol-5-yl)oxy)phenyl)-1H-imidazol-5-yl)(2-hydroxyethoxy)methyl)phenyl) propanoic acid]", "DSLS NBD1/3D Human Stability delta-T (° C.) @ 100 (μM)": "B (B: 5-10° C.)"}, {"compound": "Cc1c(Oc2cccc(-c3nnc(Cc4cccc([C@@H]5C[C@H]5C(=O)O)c4)[nH]3)c2)ccc2[nH]ccc12", "note": "(racemic) [Example 243, rac-(1R,2R)-2-(3-((5-(3-((4-Methyl-1H-indol-5-yl)oxy)phenyl)-4H-1,2,4-triazol-3-yl)methyl)phenyl)cyclopropane-1-carboxylic acid]", "DSLS NBD1/3D Human Stability delta-T (° C.) @ 100 (μM)": "B (B: 5-10° C.)"}, {"compound": "O=C(O)CCc1cccc(C2(c3cnc(-c4cc(Oc5c(F)cc6[nH]ccc6c5F)ccc4F)[nH]3)OCCO2)c1", "note": "[Example 229, 3-(3-(2-(2-(5-((4,6-difluoro-1H-indol-5-yl)oxy)-2-fluorophenyl)-1H-imidazol-5-yl)-1,3-dioxolan-2-yl)phenyl)propanoic acid]", "DSLS NBD1/3D Human Stability delta-T (° C.) @ 100 (μM)": "A (A: T ≥ 10° C.)"}, {"compound": "O=C(O)CCCCCCc1cccc(Cc2nnc(-c3cccc(Oc4ccc5[nH]ccc5c4)c3)[nH]2)c1", "note": "[Example 256, 7-(3-((5-(3-((1H-indol-5-yl)oxy)phenyl)-4H-1,2,4-triazol-3-yl)methyl)phenyl)heptanoic acid]", "DSLS NBD1/3D Human Stability delta-T (° C.) @ 100 (μM)": "C (C: ≤5° C.)"}, {"compound": "CC(=O)NS(=O)(=O)Cc1cccc(C(C)(O)c2cnc(-c3cccc(Oc4c(F)cc5[nH]ccc5c4F)c3)[nH]2)c1", "note": "(centres unmarked) [Example 212, N-((3-(1-(2-(3-((4,6-Difluoro-1H-indol-5-yl)oxy)phenyl)-1H-imidazol-5-yl)-1-hydroxyethyl)benzyl)sulfonyl)acetamide]", "DSLS NBD1/3D Human Stability delta-T (° C.) @ 100 (μM)": "B (B: 5-10° C.)"}, {"compound": "CC(C#N)(c1cccc(CCC(=O)O)c1)c1c[nH]c(-c2cc(Oc3c(F)cc4[nH]ccc4c3CC(F)F)ccc2F)n1", "note": "(centres unmarked) [Example 55, 3-(3-(1-cyano-1-(2-(5-((4-(2,2-difluoroethyl)-6-fluoro-1H-indol-5-yl)oxy)-2-fluorophenyl)-1H-imidazol-4-yl)ethyl)phenyl)propanoic acid]", "DSLS NBD1/3D Human Stability delta-T (° C.) @ 100 (μM)": "B (B: 5-10° C.)"}]}]}
